Test results from the supplement of paper PMC9334596.

Tested on: mPer2Luc MEF
Assay: PER2::LUC luminescence relative to vehicle control (fold of vehicle); higher = higher PER2::LUC reporter signal
Experimental: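 Secondary dose-response validation of 72 circadian-modulating compounds in mPer2Luc MEFs, threefold dilution series of six doses from 10 uM down to 0.04 uM. PER2::LUC luminescence read at 24 h and 30 h after treatment, normalised to vehicle (DMSO) control.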

[1] = time after treatment: 24-hour, concentration: 0.04μM
[2] = time after treatment: 24-hour, concentration: 0.37μM
[3] = time after treatment: 24-hour, concentration: 3.33μM
[4] = time after treatment: 24-hour, concentration: 10μM
[5] = time after treatment: 30-hour, concentration: 0.04μM
[6] = time after treatment: 30-hour, concentration: 0.37μM
[7] = time after treatment: 30-hour, concentration: 3.33μM
[8] = time after treatment: 30-hour, concentration: 10μM

| SMILES | PER2::LUC luminescence [1] | PER2::LUC luminescence [2] | PER2::LUC luminescence [3] | PER2::LUC luminescence [4] | PER2::LUC luminescence [5] | PER2::LUC luminescence [6] | PER2::LUC luminescence [7] | PER2::LUC luminescence [8] |
| --- | --- | --- | --- | --- | --- | --- | --- | --- |
| CCOC(=O)N1c2ccc(C(F)(F)F)cc2[C@@H](N(Cc2cc(C(F)(F)F)cc(C(F)(F)F)c2)C(=O)OC)C[C@H]1CC | 0.989 | 0.984 | 0.939 | 0.99 | 0.935 | 0.917 | 0.959 | 0.943 |
| CCc1cc2c(cc1N1CCC(N3CCOCC3)CC1)C(C)(C)c1[nH]c3cc(C#N)ccc3c1C2=O | 0.92 | 0.909 | 0.957 | 0.902 | 0.817 | 0.859 | 0.859 | 0.83 |
| CCc1cncnc1N1CCN(Cc2nc3ccc(C(F)(F)F)cc3[nH]2)CC1 | 1.03 | 1 | 1.01 | 1.06 | 1 | 1.03 | 1.01 | 1.03 |
| CN1CCN(C2CCC(n3cc(-c4ccc(Oc5ccccc5)cc4)c4c(N)ncnc43)CC2)CC1 (stereo unspecified) | 0.613 | 0.502 | 0.203 | 0.006 | 0.566 | 0.477 | 0.212 | 0.003 |
| CN1CCN(c2nc3ccccc3nc2Cl)CC1 | 1 | 1.02 | 1.02 | 0.958 | 1.04 | 1.05 | 1.04 | 0.971 |
| COc1cc(NC(=O)c2ccc(-c3ccc(Cl)cc3)o2)cc(OC)c1 | 0.886 | 0.894 | 0.888 | 0.875 | 0.83 | 0.878 | 0.95 | 0.864 |
| COc1ccc(-c2nc3cc(F)ccc3s2)cc1OC | 1.36 | 1.39 | 1.36 | 1.36 | 1.66 | 1.69 | 1.67 | 1.58 |
| COc1ccccc1-c1cc(Nc2cccc(CS(N)(=O)=O)c2)ncn1 | 0.961 | 0.968 | 0.971 | 0.804 | 0.841 | 0.933 | 0.964 | 0.982 |
| Cc1ccc(NC(=O)c2cccc(N(C)C)c2)cc1NC(=O)c1ccc(O)cc1 | 0.95 | 0.979 | 1.07 | 1.36 | 0.924 | 0.932 | 1.01 | 1.65 |
| Cc1ccc2nc(NCCN)c3ncc(C)n3c2c1 | 0.893 | 0.859 | 0.768 | 0.028 | 0.841 | 0.784 | 0.594 | 0.03 |
| Nc1nc(N)c2nc(-c3cccc(O)c3)cnc2n1 | 0.893 | 0.833 | 0.854 | 0.608 | 0.829 | 0.88 | 0.803 | 0.578 |
| Nc1nccc(Oc2ccc(NC(=O)c3c[nH]cc(-c4ccc(F)cc4)c3=O)cc2F)c1Cl | 1 | 1.02 | 1.03 | 1.12 | 1.06 | 1.03 | 0.929 | 1 |
| Nc1ncnc2c1C(=O)N(c1ccc([C@H]3CC[C@H](CC(=O)O)CC3)cc1)CCO2 | 1.04 | 0.984 | 1 | 1 | 1.03 | 0.966 | 1.06 | 1.01 |
| O=C(Nc1cccc(Cl)c1)c1ccccn1 | 1.06 | 1.28 | 1.51 | 1.81 | 1.06 | 1.29 | 1.57 | 1.92 |
| O=c1cc(N2CCOCC2)oc2c(-c3cccc4c3sc3ccccc34)cccc12 | 0.952 | 0.951 | 1.05 | 1.07 | 0.952 | 0.931 | 1.08 | 1.09 |
| OCc1ccc(-c2ccc(-c3ccc(CO)s3)o2)s1 | 1.37 | 1.41 | 1.49 | 1.24 | 1.62 | 1.63 | 1.68 | 1.41 |
| Cc1cccc(/C=N/Nc2cc(N3CCOCC3)n3nc(-c4ccncc4)cc3n2)c1 [APY0201] | 0.206 | 0.187 | 0.151 | 0.04 | 0.16 | 0.145 | 0.117 | 0.038 |
| CCN1CCN(Cc2ccc(NC(=O)Nc3ccc(Oc4cc(NC)ncn4)cc3)cc2C(F)(F)F)CC1 [AST 487] | 0.843 | 0.869 | 0.792 | 0.031 | 0.918 | 0.891 | 0.951 | 0.023 |
| CCCCN(CCCC)C(=O)CN1C[C@H](c2ccc3c(c2)OCO3)[C@@H](C(=O)O)[C@@H]1c1ccc(OC)cc1 [ATRASENTAN] | 1.16 | 1.17 | 1.5 | 2.41 | 1.19 | 1.16 | 1.47 | 2.31 |
| CN1CCN(S(=O)(=O)c2ccc(-c3cnc(N)c(C(=O)Nc4cccnc4)n3)cc2)CC1 [AZD2858] | 1.18 | 1.37 | 1.01 | 0.842 | 0.938 | 1.16 | 0.874 | 0.676 |
| COc1cc(CCc2cc(NC(=O)c3ccc(N4CC(C)NC(C)C4)cc3)n[nH]2)cc(OC)c1 (stereo unspecified) [AZD4547] | 0.792 | 0.795 | 0.679 | 0.329 | 0.796 | 0.73 | 0.643 | 0.278 |
| COc1cc(NS(C)(=O)=O)ccc1Nc1c2ccccc2nc2ccccc12 [Amsacrine] | 0.726 | 0.768 | 0.663 | 0.603 | 0.43 | 0.474 | 0.379 | 0.285 |
| COc1ccc(C[C@H]2NC[C@H](O)[C@H]2OC(C)=O)cc1 [Anisomycin] | 0.056 | 0.032 | 0.002 | 0.001 | 0.06 | 0.05 | 0.001 | 0.001 |
| COc1ccc(CCN2CCC(Nc3nc4ccccc4n3Cc3ccc(F)cc3)CC2)cc1 [Astemizole] | 0.895 | 0.815 | 0.543 | 0.026 | 0.783 | 0.79 | 0.67 | 0.009 |
| CC[C@@H]1C(=O)N(C)c2cnc(Nc3ccc(C(=O)N[C@H]4CC[C@H](N5CCN(CC6CC6)CC5)CC4)cc3OC)nc2N1C(C)C [BI-6727 (Volasertib)] | 0.71 | 0.565 | 0.287 | 0.074 | 0.679 | 0.574 | 0.326 | 0.08 |
| C/C(=C\C(=O)Nc1ccccc1C(=O)O)c1ccc2ccccc2c1 [BIBR 1532] | 0.94 | 0.97 | 0.991 | 1.16 | 0.94 | 0.891 | 0.98 | 1.26 |
| CN(C)C/C=C/C(=O)Nc1cc2c(Nc3ccc(F)c(Cl)c3)ncnc2cc1O[C@H]1CCOC1 [BIBW2992 DiMaleate] | 0.774 | 0.77 | 0.48 | 0.026 | 0.705 | 0.696 | 0.442 | 0.028 |
